Measured values taken from patent US20200060276A1, “THIAZOLE COMPOUND AND HERBICIDE” (OAT Agrio Co., Ltd., priority 2017, published 2020).

How the values were obtained:
Type in all cases: in vivo
[1] = system: Echinochloa crus-galli (L.) P. Beauv. var. formosensis Ohwi; test: Test for Herbicidal Effect in Flooding Treatment (#1), ECHDG; details: for ECHDG #1 herbicidal effect (growth inhibition grade): flooding treatment at seeding, dose 2 kg/ha, visual observation on day 21; for ECHDG #1 herbicidal effect (growth inhibition rating 0-5): flooding treatment #1
Method in brief: (§1)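 Visual scores from 0 (<10% inhibition) to 5 (≥90% or complete withering) were taken 21 days after treatment of glasshouse-grown plants. Seeds were sown in soil flooded for 24 h beforehand, and compound was applied dropwise onto the surface at 2 kg/ha as an acetone solution diluted in water with Tween 80.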

Monochoria vaginalis = test: Test for Herbicidal Effect in Flooding Treatment (#1), MONVA; details: for MONVA #1 herbicidal effect (growth inhibition grade): flooding treatment at seeding, dose 2 kg/ha, visual observation on day 21; for MONVA #1 herbicidal effect (growth inhibition rating 0-5): flooding treatment #1
Method in brief: as §1

Scirpus juncoides = test: Test for Herbicidal Effect in Flooding Treatment (#1), SCIJU; details: for SCIJU #1 herbicidal effect (growth inhibition grade): flooding treatment at seeding, dose 2 kg/ha, visual observation on day 21; for SCIJU #1 herbicidal effect (growth inhibition rating 0-5): flooding treatment #1
Method in brief: as §1

[2] = system: Echinochloa crus-galli (L.) P. Beauv. var. formosensis Ohwi; test: Test for Herbicidal Effect in Flooding Treatment (#2), ECHDG at 2-2.5 leaf stage; details: for ECHDG (2-2.5L) #2 herbicidal effect (growth inhibition grade): flooding treatment at 2-2.5 leaf stage, dose 0.2 kg/ha, visual observation on day 21; for ECHDG (2-2.5L) #2 herbicidal effect (growth inhibition rating 0-5): flooding treatment #2, 2-2.5 leaf stage
Method in brief: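 Flooded muddy soil was seeded with the weed, and at 2–2.5 leaf stage compound in acetone/Tween 80 water was dropped on the water surface at 0.2 kg/ha. Plants were kept in a glasshouse and scored visually on day 21 from 0 (<10% growth inhibition) to 5 (≥90% or complete withering).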

| Compound | ECHDG #1 herbicidal effect (growth inhibition grade) [1] | MONVA #1 herbicidal effect (growth inhibition grade) (Monochoria vaginalis) | SCIJU #1 herbicidal effect (growth inhibition grade) (Scirpus juncoides) | ECHDG (2-2.5L) #2 herbicidal effect (growth inhibition grade) [2] | ECHDG #1 herbicidal effect (growth inhibition rating 0-5) [1] | MONVA #1 herbicidal effect (growth inhibition rating 0-5) (Monochoria vaginalis) | SCIJU #1 herbicidal effect (growth inhibition rating 0-5) (Scirpus juncoides) | ECHDG (2-2.5L) #2 herbicidal effect (growth inhibition rating 0-5) [2] |
| --- | --- | --- | --- | --- | --- | --- | --- | --- |
| [2H]C([2H])(c1ccccc1OCC(F)(F)F)S(=O)(=O)c1ncc(Cl)s1 [Compound 1C-134] | 5 (Growth inhibition effect is equal to or greater than 90%, or complete withering is achieved) | 5 (Growth inhibition effect is equal to or greater than 90%, or complete withering is achieved) | 5 (Growth inhibition effect is equal to or greater than 90%, or complete withering is achieved) | 5 (Growth inhibition effect is equal to or greater than 90%, or complete withering is achieved) | – | – | – | – |
| [2H]C([2H])(c1c(OCC)ccc(Cl)c1Cl)S(=O)(=O)c1ncc(Cl)s1 [Compound 1C-130, 5-chloro-2-{[2-ethoxy-5,6-dichlorophenyl][dideuterium(methanesulfonyl)]}-1,3-thiazole] | 5 (Growth inhibition effect is equal to or greater than 90%, or complete withering is achieved) | 5 (Growth inhibition effect is equal to or greater than 90%, or complete withering is achieved) | 5 (Growth inhibition effect is equal to or greater than 90%, or complete withering is achieved) | 5 (Growth inhibition effect is equal to or greater than 90%, or complete withering is achieved) | – | – | – | – |
| O=S(=O)(Cc1c(F)ccc(F)c1OC(F)F)c1ncc(Br)s1 [Compound 1C-155] | 5 (Growth inhibition effect is equal to or greater than 90%, or complete withering is achieved) | 5 (Growth inhibition effect is equal to or greater than 90%, or complete withering is achieved) | 5 (Growth inhibition effect is equal to or greater than 90%, or complete withering is achieved) | 5 (Growth inhibition effect is equal to or greater than 90%, or complete withering is achieved) | – | – | – | – |
| [O-][S+](Cc1c(Cl)cccc1OC(F)F)c1ncc(Br)s1 (stereo not shown) [Compound 1B-20] | – | – | – | – | 5 (Growth inhibition effect is equal to or greater than 90%, or complete withering is achieved) | 5 (Growth inhibition effect is equal to or greater than 90%, or complete withering is achieved) | 5 (Growth inhibition effect is equal to or greater than 90%, or complete withering is achieved) | 5 (Growth inhibition effect is equal to or greater than 90%, or complete withering is achieved) |
| COc1cccc(Cl)c1C[S+]([O-])c1ncc(Cl)s1 (stereo not shown) [Compound 1B-1] | – | – | – | – | 5 (Growth inhibition effect is equal to or greater than 90%, or complete withering is achieved) | 3 (Growth inhibition effect equal to or greater than 50%, and less than 70%) | 4 (Growth inhibition effect is equal to or greater than 70%, and less than 90%) | 4 (Growth inhibition effect is equal to or greater than 70%, and less than 90%) |
| CC(c1c(F)cccc1OCC(F)(F)C(F)F)S(=O)(=O)c1ncc(Br)s1 (stereo not shown) [Compound 1C-165] | 5 (Growth inhibition effect is equal to or greater than 90%, or complete withering is achieved) | 5 (Growth inhibition effect is equal to or greater than 90%, or complete withering is achieved) | 5 (Growth inhibition effect is equal to or greater than 90%, or complete withering is achieved) | 3 (Growth inhibition effect equal to or greater than 50%, and less than 70%) | – | – | – | – |
| O=S(=O)(Cc1c(Cl)cccc1OCC(F)F)c1ncc(Cl)s1 [Compound 1C-51] | 5 (Growth inhibition effect is equal to or greater than 90%, or complete withering is achieved) | 5 (Growth inhibition effect is equal to or greater than 90%, or complete withering is achieved) | 5 (Growth inhibition effect is equal to or greater than 90%, or complete withering is achieved) | 5 (Growth inhibition effect is equal to or greater than 90%, or complete withering is achieved) | – | – | – | – |
| O=S(=O)(Cc1c(F)cccc1OCC(F)(F)C(F)F)c1ncc(Br)s1 [Compound 1C-164] | 5 (Growth inhibition effect is equal to or greater than 90%, or complete withering is achieved) | 5 (Growth inhibition effect is equal to or greater than 90%, or complete withering is achieved) | 5 (Growth inhibition effect is equal to or greater than 90%, or complete withering is achieved) | 5 (Growth inhibition effect is equal to or greater than 90%, or complete withering is achieved) | – | – | – | – |
| [2H]C([2H])(c1c(F)cccc1OC(F)F)S(=O)(=O)c1ncc(Cl)s1 [Compound 1C-131] | 5 (Growth inhibition effect is equal to or greater than 90%, or complete withering is achieved) | 5 (Growth inhibition effect is equal to or greater than 90%, or complete withering is achieved) | 5 (Growth inhibition effect is equal to or greater than 90%, or complete withering is achieved) | 5 (Growth inhibition effect is equal to or greater than 90%, or complete withering is achieved) | – | – | – | – |
| O=S(=O)(Cc1c(F)cccc1OCCCC(F)(F)F)c1ncc(Cl)s1 [Compound 1C-63] | 5 (Growth inhibition effect is equal to or greater than 90%, or complete withering is achieved) | 5 (Growth inhibition effect is equal to or greater than 90%, or complete withering is achieved) | 5 (Growth inhibition effect is equal to or greater than 90%, or complete withering is achieved) | 3 (Growth inhibition effect equal to or greater than 50%, and less than 70%) | – | – | – | – |
| O=S(=O)(Cc1c(F)cccc1OC(F)F)c1ncc(Br)s1 [Compound 1C-153] | 5 (Growth inhibition effect is equal to or greater than 90%, or complete withering is achieved) | 5 (Growth inhibition effect is equal to or greater than 90%, or complete withering is achieved) | 5 (Growth inhibition effect is equal to or greater than 90%, or complete withering is achieved) | 5 (Growth inhibition effect is equal to or greater than 90%, or complete withering is achieved) | – | – | – | – |
| O=S(=O)(Cc1c(Cl)cccc1OCC(F)(F)C(F)(F)F)c1ncc(Cl)s1 [Compound 1C-62] | 5 (Growth inhibition effect is equal to or greater than 90%, or complete withering is achieved) | 5 (Growth inhibition effect is equal to or greater than 90%, or complete withering is achieved) | 5 (Growth inhibition effect is equal to or greater than 90%, or complete withering is achieved) | 4 (Growth inhibition effect is equal to or greater than 70%, and less than 90%) | – | – | – | – |
| CC(=O)C(C(C)=O)(c1c(F)cccc1OC(F)F)S(=O)(=O)c1ncc(Cl)s1 [Compound 1C-147] | 5 (Growth inhibition effect is equal to or greater than 90%, or complete withering is achieved) | 5 (Growth inhibition effect is equal to or greater than 90%, or complete withering is achieved) | 5 (Growth inhibition effect is equal to or greater than 90%, or complete withering is achieved) | 5 (Growth inhibition effect is equal to or greater than 90%, or complete withering is achieved) | – | – | – | – |
| O=S(=O)(Cc1c(F)cccc1OCC(F)(F)C(F)(F)F)c1ncc(Cl)s1 [Compound 1C-61] | 5 (Growth inhibition effect is equal to or greater than 90%, or complete withering is achieved) | 5 (Growth inhibition effect is equal to or greater than 90%, or complete withering is achieved) | 5 (Growth inhibition effect is equal to or greater than 90%, or complete withering is achieved) | 5 (Growth inhibition effect is equal to or greater than 90%, or complete withering is achieved) | – | – | – | – |
| [O-][S+](Cc1c(F)cccc1OCC(F)(F)C(F)F)c1ncc(Br)s1 (stereo not shown) [Compound 1B-26] | – | – | – | – | 5 (Growth inhibition effect is equal to or greater than 90%, or complete withering is achieved) | 5 (Growth inhibition effect is equal to or greater than 90%, or complete withering is achieved) | 5 (Growth inhibition effect is equal to or greater than 90%, or complete withering is achieved) | 4 (Growth inhibition effect is equal to or greater than 70%, and less than 90%) |
| O=S(=O)(Cc1c(F)cccc1OC(F)F)c1ncc(Cl)s1 [Compound 1C-43] | 5 (Growth inhibition effect is equal to or greater than 90%, or complete withering is achieved) | 5 (Growth inhibition effect is equal to or greater than 90%, or complete withering is achieved) | 5 (Growth inhibition effect is equal to or greater than 90%, or complete withering is achieved) | 5 (Growth inhibition effect is equal to or greater than 90%, or complete withering is achieved) | – | – | – | – |
